The values that follow come from patent publication US7888332B2, “Hydrazide-containing CFTR inhibitor compounds and uses thereof” (The Regents of the University of California, priority 2004, dated 2011).

Structures are written as SMILES. Where two headings read alike, the source gives them in different places.

Data set [1] addresses T1, CFTR (Homo sapiens, UniProt P13569). In words: Short-circuit current (apical Cl− current) analysis on permeabilized CFTR-expressing FRT cells. The conditions noted are these: for inhibition at 50 µM: FRT, read-out: % inhibition at 50 μM; for change of inhibitory potency relative to parent compound: vs GlyH-101 / GlyH-102.
Target sequence in this assay (P13569 whole entry): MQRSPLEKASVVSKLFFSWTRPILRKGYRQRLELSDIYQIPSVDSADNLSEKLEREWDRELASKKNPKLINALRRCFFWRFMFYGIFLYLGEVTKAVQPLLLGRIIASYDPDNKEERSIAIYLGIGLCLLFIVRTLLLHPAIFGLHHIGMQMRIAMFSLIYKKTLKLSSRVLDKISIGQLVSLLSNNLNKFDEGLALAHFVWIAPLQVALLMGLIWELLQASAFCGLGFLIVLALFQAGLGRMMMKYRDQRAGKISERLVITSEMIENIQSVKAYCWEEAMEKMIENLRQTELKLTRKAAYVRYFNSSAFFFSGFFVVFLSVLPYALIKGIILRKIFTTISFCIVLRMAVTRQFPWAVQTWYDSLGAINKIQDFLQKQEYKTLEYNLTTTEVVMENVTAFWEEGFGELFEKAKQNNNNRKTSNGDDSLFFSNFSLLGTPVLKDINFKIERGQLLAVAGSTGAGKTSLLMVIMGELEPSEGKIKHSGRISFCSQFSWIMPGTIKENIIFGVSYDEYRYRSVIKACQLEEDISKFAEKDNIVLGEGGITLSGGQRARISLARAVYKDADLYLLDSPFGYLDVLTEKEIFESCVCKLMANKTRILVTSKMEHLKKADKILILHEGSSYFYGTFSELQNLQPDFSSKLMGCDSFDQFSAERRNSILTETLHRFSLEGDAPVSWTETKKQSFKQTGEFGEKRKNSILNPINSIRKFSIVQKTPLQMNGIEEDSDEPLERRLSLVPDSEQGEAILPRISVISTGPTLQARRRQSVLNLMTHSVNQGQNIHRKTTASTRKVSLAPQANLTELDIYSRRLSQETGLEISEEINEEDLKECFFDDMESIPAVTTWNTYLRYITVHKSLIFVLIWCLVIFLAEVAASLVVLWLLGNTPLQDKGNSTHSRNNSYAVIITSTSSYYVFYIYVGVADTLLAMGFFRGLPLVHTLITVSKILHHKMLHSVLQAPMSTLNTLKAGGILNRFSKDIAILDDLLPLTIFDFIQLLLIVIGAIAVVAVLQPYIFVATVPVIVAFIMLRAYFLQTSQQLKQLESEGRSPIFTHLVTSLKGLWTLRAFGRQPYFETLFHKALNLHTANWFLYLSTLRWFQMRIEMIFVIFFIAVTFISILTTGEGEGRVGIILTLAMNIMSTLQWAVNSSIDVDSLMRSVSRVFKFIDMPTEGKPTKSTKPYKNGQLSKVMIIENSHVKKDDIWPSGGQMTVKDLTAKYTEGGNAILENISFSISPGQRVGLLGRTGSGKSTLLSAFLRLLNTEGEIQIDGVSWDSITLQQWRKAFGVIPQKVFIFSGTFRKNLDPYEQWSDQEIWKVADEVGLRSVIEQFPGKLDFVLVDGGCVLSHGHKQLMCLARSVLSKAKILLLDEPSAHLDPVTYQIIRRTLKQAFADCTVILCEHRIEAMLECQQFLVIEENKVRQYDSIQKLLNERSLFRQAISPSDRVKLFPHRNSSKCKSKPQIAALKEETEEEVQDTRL
In data set [2] the target is T1, CFTR. Further details: host or cells: 'permeabilized cell preparations' and 'most intact epithelial cells' (not specified). The conditions noted are these: cited from earlier work.
Target sequence in this assay (P13569 whole entry, species assumed): as the sequence (P13569 whole entry) above
Data set [3] in a line: Intestinal absorption in closed mid-jejunal loops. It is filed as in vivo. The conditions noted are these: mice, 2 hours. As to the method: Absorption studies were performed using mid-jejunal loops created as described above. […] After 2 hours loop fluid was withdrawn and optical absorbance of test compound and FITC were measured (OD342/OD494nm). Percentage intestinal absorption was computed assuming zero absorption of FITC-dextran.
Intestinal absorption was measured in mice in vivo from the disappearance of MalH compounds from the lumens of closed mid-jejunal loops over 2 hours. In these experiments mannitol was included in the MalH-containing solutions to prevent fluid absorption. Absorption rates were referenced against a large FITC-dextran, which was assumed to undergo no absorption over the 2 hour study.

Data set [4] has as its target T1, CFTR. In words: Whole-cell patch-clamp on FRT cells expressing CFTR. It is filed as cell-based. Further details: expressed in transfected cells; host or cells: Fisher Rat Thyroid (FRT) cells, stably transfected. The following applies: GlyH-101 at submaximal concentrations; CFTRinh-172 5 μM. As to the method:
Patch-clamp experiments were carried out at room temperature on FRT cells stably expressing wildtype CFTR. Cell-attached and whole-cell configurations were used (Hamill et al., Pflugers Arch. 391:85-100, 1981). The cell membrane was clamped at specified voltages using an EPC-7 patch-clamp amplifier (List Medical). Data were filtered at 500 Hz and digitized at 2000 Hz. For whole-cell experiments the pipette solution contained (in mM): 120 CsCl, 10 TEA-Cl, 0.5 EGTA, 1 MgCl2, 40 mannitol, 10 Cs-HEPES and 3 mM MgATP (pH 7.3). For cell attached experiments EGTA was replaced with 1 mM CaCl2. The bath solution for whole-cell experiments contained (in mM): 150 NaCl, 1 CaCl2, 1 MgCl2, 10 glucose, 10 mannitol, 10 Na-TES (pH 7.4). In cell-attached experiments the bath solution contained (in mM): 130 KCl, 2 NaCl, 2 CaCl2, 2 MgCl2, 10 glucose, 20 mannitol, and 10 K-Hepes (pH 7.3). Inhibitors were applied by extracellular perfusion. CFTR channel activity in cell-attached patches was analyzed as described previously (Taddei et al., FEBS Lett. 558:52-56, 2004).
The mechanism of CFTR block by GlyH-101 was studied using the whole-cell configuration of the patch-clamp technique. After maximal activation of CFTR in stably transfected FRT cells by 5 μM forskolin, current-voltage relationships were measured at GlyH-101 concentrations from 0 to 50 μM. […] Extracellular perfusion with 10 μM GlyH-101 produced an immediate reduction in current that was strongly dependent on membrane potential (FIG. 4A, right panel). At more positive membrane potentials outward positive currents (Cl^− movement into the cell) were reduced compared to inward currents. […] Data for the thiazolidinone 3-[(3-trifluoromethyl)phenyl]-5-[(4-carboxyphenyl)methylene]-2-thioxo-4-thiazolidinone (referred to herein as CFTRinh-172) (5 μM) is shown for comparison. […] FIG. 4C summarizes percentage CFTR current block as a function of GlyH-101 concentration at different membrane voltages.
Target sequence in this assay (P13569 whole entry): as above

Data set [5] relates to upper airway CFTR Cl− conductance. In words: Nasal potential difference measurements in mice. The conditions noted are these: compound in all solutions (100 μM).
A short description of data set [6]: Spectrophotometric pH titration (pKa). It is filed as physicochemical. The conditions noted are these: read-out: pKa, secondary amine. As to the method:
FIG. 5A is a graph illustrating the pH-dependent absorbance changes (right panel) of the chemical compounds (10 μM) (corresponding chemical structures, left panel) in NaCl (100 mM) containing MES, HEPES, boric acid, and citric acid (each 10 mM) titrated to different pH using HCl/NaOH. Absorbance changes measured at analytical wavelengths of 346, 348, 346, and 236 nm (top to bottom).

Setting [7] is: Ki, Table 4, Group IV, concentration giving 50% inhibition of CFTR Cl− conductance.
The mark [8] stands for this setting: Table 1, Group I, concentration giving 50% inhibition of CFTR Cl− conductance.
The mark [9] stands for this setting: Ki, Table 1, Group I, concentration giving 50% inhibition of CFTR Cl− conductance.
The mark [10] stands for this setting: Ki, Table 2, Group II, concentration giving 50% inhibition of CFTR Cl− conductance.
[11] abbreviates: Ki, Table 3, Group III, concentration giving 50% inhibition of CFTR Cl− conductance.

Regarding `O=C(COc1ccc2ccccc2c1)NN=Cc1cc(Br)c(O)c(Br)c1O` [AceH-401], on CFTR [1], the inhibition at 50 µM was determined as 84%. Also, at CFTR [1] (setting [7]), the Ki worked out at 21 µM.

For `O=C(COc1ccc2ccccc2c1)NN=Cc1cc(Br)c(O)c(Br)c1` [AceH-402], the inhibition at 50 µM on CFTR [1] worked out at 86%. This compound also yielded a Ki on CFTR [1] (setting [7]) of 17 µM.

For `Cc1ccc(CC(=O)NN=Cc2cc(Br)c(O)c(Br)c2O)cc1` [AceH-403], the inhibition at 50 µM at CFTR [1] came out at 54%. The same compound gave a Ki at CFTR [1] (setting [7]) of 10 µM.

Turning to `Cc1ccc(CC(=O)NN=Cc2cc(Br)c(O)c(Br)c2)cc1` [AceH-404], the inhibition at 50 µM on CFTR [1] came out at 63%. Further, the Ki at CFTR [1] (setting [7]) turned out to be 15 µM.

With `O=C(O)c1ccc(C=C2SC(=S)N(c3cccc(C(F)(F)F)c3)C2=O)cc1` [CFTRinh-172, 3-[(3-trifluoromethyl)phenyl]-5-[(4-carboxyphenyl)methylene]-2-thioxo-4-thiazolidinone], the Ki at CFTR [2] (most intact epithelial cells) was 2 to 5 µM; on CFTR [2] (permeabilized cell preparations) it was 0.2 to 0.3 µM. In addition, the “absorption from closed mid-jejunal loops” value in data set [3] is above 90%. In addition, on CFTR [4], the current-voltage relationship entry is “linear”.

In the case of `O=S(=O)(O)c1cc(N=C=S)ccc1C=Cc1ccc(N=C=S)cc1S(=O)(=O)O` [DIDS, reference compound], the “inhibition of (CFTR-independent) hyperpolarization produced by low Cl−” value in data set [5] is “partial inhibition”.

Turning to `O=C(CNc1ccc2ccccc2c1)N/N=C/c1cc(Br)c(O)c(Br)c1` [GlyH-102], the “% inhibition at 50 μM” value at CFTR [1] (Table 1, Group I) worked out at 98%. This compound displayed a Ki on CFTR [1] (setting [8]) of 5 µM.

As to `COc1c(Br)cc(C=NNC(=O)CNc2ccc3ccccc3c2)c(O)c1Br` [GlyH-103], on CFTR [1], the inhibition at 50 µM turned out to be 56%. For the same compound, the Ki on CFTR [1] (setting [9]) amounted to 20 µM.

`O=C(CNc1cccc2ccccc12)NN=Cc1cc(Br)c(O)c(Br)c1O` [GlyH-104]: at CFTR [1], the inhibition at 50 µM worked out at 86% and the “change of inhibitory potency relative to parent compound” value is given as “ten-fold”. The compound also yielded a Ki at CFTR [1] (setting [9]) of 12 µM.

Take `O=C(CNc1cccc2ccccc12)NN=Cc1cc(Br)c(O)c(Br)c1` [GlyH-105]: the inhibition at 50 µM at CFTR [1] turned out to be 87%. This compound displayed a Ki on CFTR [1] (setting [9]) of 15 µM.

On to `CC(Nc1ccc2ccccc2c1)C(=O)NN=Cc1cc(Br)c(O)c(Br)c1O` (stereo not shown) [GlyH-106], for which, at CFTR [1] (Table 1, Group I), the “% inhibition at 50 μM” value is recorded as 91%. The Ki on CFTR [1] (setting [8]) was determined as 6 µM.

Take `CC(Nc1ccc2ccccc2c1)C(=O)NN=Cc1cc(Br)c(O)c(Br)c1` (stereo not shown) [GlyH-107]: the inhibition at 50 µM on CFTR [1] worked out at 80%. Besides, the Ki on CFTR [1] (setting [9]) was determined as 10 µM.

For `CC(=NNC(=O)CNc1ccc2ccccc2c1)c1cc(Br)c(O)c(Br)c1O` [GlyH-108], the “% inhibition at 50 μM” value on CFTR [1] (Table 1, Group I) was 81%. Besides, the Ki on CFTR [1] (setting [8]) was found to be 10 µM.

As to `CC(=NNC(=O)CNc1ccc2ccccc2c1)c1cc(Br)c(O)c(Br)c1` [GlyH-109], the inhibition at 50 µM at CFTR [1] came to 100%. Also, the Ki on CFTR [1] (setting [9]) stood at 2.5 µM.

For the compound `O=C(CNc1ccc(Cl)cc1)NN=Cc1cc(Br)c(O)c(Br)c1` [GlyH-114], at CFTR [1], the inhibition at 50 µM stood at 95%. On CFTR [1] (setting [9]), this compound gave a Ki of 5 µM.

`O=C(CNc1ccc(Cl)cc1)NN=Cc1cc(Br)c(O)c(Br)c1O` [GlyH-115]: the inhibition at 50 µM at CFTR [1] was determined as 91%. This compound came in with a Ki at CFTR [1] (setting [9]) of 5 µM.

Regarding `Cc1ccc(NCC(=O)NN=Cc2cc(Br)c(O)c(Br)c2O)cc1` [GlyH-116], the inhibition at 50 µM on CFTR [1] worked out at 79%. This compound came in with a Ki at CFTR [1] (setting [9]) of 10 µM.

For `O=C(CNc1ccc2ccccc2c1)NNC(=O)c1cc(Br)c(O)c(Br)c1` [GlyH-202, 3,5-dibromo-4-hydroxy-[2-(2-napthalenamine)aceto]benzoic acid hydrazide], at CFTR [1], the inhibition at 50 µM was 57%. The same compound gave a Ki on CFTR [1] (setting [10]) of 22 µM.

Regarding `O=C(CNc1ccc2ccccc2c1)NNCc1cc(Br)c(O)c(Br)c1` [GlyH-302], on CFTR [1], the inhibition at 50 µM was found to be 55%. Besides, at CFTR [1] (setting [11]), the Ki was around 50 µM.

For the compound `O=C(NN=Cc1cc(Br)c(O)c(Br)c1O)C(=O)Nc1ccc2ccccc2c1` [OxaH-110, N-2-napthalenyl-[(3,5-dibromo-2,4-dihydroxyphenyl)methylene]oxamic acid hydrazide], at CFTR [1], the inhibition at 50 µM worked out at 86% and the “change of inhibitory potency relative to parent compound” value was “two-three fold greater”. Besides, at CFTR [1] (setting [9]), the Ki stood at 2 µM. Besides, the Ki on CFTR [1] (apparent Ki, CFTR stimulated by 100 μM CPT-cAMP) was around 2 µM.

In the case of `O=C(NN=Cc1cc(Br)c(O)c(Br)c1)C(=O)Nc1ccc2ccccc2c1` [OxaH-111], on CFTR [1], the inhibition at 50 µM came to 52% and the “change of inhibitory potency relative to parent compound” value is on record as “two-three fold greater”. At CFTR [1] (setting [9]), this compound came in with a Ki of 2.5 µM.

For the compound `CC(=NNC(=O)C(=O)Nc1ccc2ccccc2c1)c1cc(Br)c(O)c(Br)c1O` [OxaH-112], at CFTR [1], the inhibition at 50 µM was determined as 95%. This compound yielded a Ki on CFTR [1] (setting [9]) of 3 µM.

Regarding `CC(=NNC(=O)C(=O)Nc1ccc2ccccc2c1)c1cc(Br)c(O)c(Br)c1` [OxaH-113], on CFTR [1], the inhibition at 50 µM is 90%. This compound also had a Ki at CFTR [1] (setting [9]) of 3 µM.

`O=C(NNC(=O)c1cc(Br)c(O)c(Br)c1O)C(=O)Nc1ccc2ccccc2c1` [OxaH-203] showed a Ki at CFTR [1] (setting [10]) above 50 µM.

Compound `O=C(NNC(=O)c1cc(Br)c(O)c(Br)c1)C(=O)Nc1ccc2ccccc2c1` [OxaH-204] gave a Ki on CFTR [1] (setting [10]) above 50 µM.

As to `O=C(NNCc1cc(Br)c(O)c(Br)c1O)C(=O)Nc1ccc2ccccc2c1` [OxaH-303], on CFTR [1], the inhibition at 50 µM was 70%. This compound also returned a Ki at CFTR [1] (setting [11]) of 10 µM.

For `O=C(NNCc1cc(Br)c(O)c(Br)c1)C(=O)Nc1ccc2ccccc2c1` [OxaH-304], on CFTR [1], the inhibition at 50 µM worked out at 78%. Further, the Ki on CFTR [1] (setting [11]) is 12 µM.

With `CCOC(=O)CNc1ccc2ccccc2c1` [ethyl N-(2-napthalenyl) glycinate, ethyl N-(2-naphthalenyl)glycinate], the pKa in data set [6] was around 4.7.

Broadly, the inhibition is the relative decrease from the control value, in per cent. The % inhibition is the percentage by which the read-out fell short of the control. Usually pKa stands for the pH at which an ionisable group is half protonated.
